{
  "source": "patent US20230011052A1",
  "about": "“METHOD AND COMPOSITIONS FOR REGULATED ARMORING OF CELLS” (Senti Biosciences, Inc., priority 2019, published 2023)",
  "key": {"[1]": {"biological_target": "T1, ERT2 domain (Homo sapiens, UniProt P03372, G400V/L544A/M543A)", "T1 construct": "expressed in transfected cells; host or cells: CD4/CD8 T cells, virally transduced", "T1 sequence (P03372 311-547 G400V/M543A/L544A limits assumed)": "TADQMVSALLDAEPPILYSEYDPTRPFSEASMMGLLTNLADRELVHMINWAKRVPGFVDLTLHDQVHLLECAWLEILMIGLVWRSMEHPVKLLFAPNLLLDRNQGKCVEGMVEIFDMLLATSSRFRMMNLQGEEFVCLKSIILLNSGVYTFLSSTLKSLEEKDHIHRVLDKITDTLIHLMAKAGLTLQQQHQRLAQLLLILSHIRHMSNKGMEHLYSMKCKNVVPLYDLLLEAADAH", "assay": "Tamoxifen (ERT2) regulatable TF reporter and CAR expression in T cells (MFI)", "assay_type": "cell-based", "settings": "T cells with ERT2 regulatable TF 565 and reporter alone (1066) or on construct also encoding a CAR (2235); 1, 0.25, 0.1 uM or no drug; Day 9 MFI", "source_text": "Various regulatable TF (also referred to as an activation-conditional control polypeptide (ACP) for drug-inducible formats or “synTF”) and expression cassettes were constructed as shown in FIG. 17A. […] The cassettes were cloned into a viral vector and used to produce virus.\nOn Day 0, CD4/CD8 T cells (FL00711) were thawed and activated with Dynabeads (3:1) in complete T cell media (Optimizer+Supplements—Gibco+5% human serum)+IL-2 (100 Units/ml). On Day 2, cells were transduced with 1×10^5 GV of virus. […] Florescent median intensity (MFI) was assessed of Day 9."}, "[2]": {"test_system": "T cells engineered with drug-inducible ACP (inducible IL-12)", "description": "Grazoprevir potassium salt was dissolved sequentially in DMSO, PEG400, and PBS to reach 10 mg/mL. All Grz dosing was administered IP. 20e6 T cells per mouse were injected by tail vein injection, as indicated. Luminex assay was run to assess levels of hIL-12 in mouse plasma. Presence of human T cells in mouse blood was analyzed by flow cytometry.\nFollowing the results of the experiments above, animals were dosed (IP) 60 mg/kg for 3 days once a day. Recombinant (hIL-2 1×10^4 IU) was also administered as indicated."}, "[3]": {"test_system": "target cells", "assay": "T cell killing assay (LDH release)", "assay_type": "cell-based", "settings": "+/- 2 μM GRZ for 48 hours", "procedure": "For T cell killing assays, on Day 0 T cells were seeded at 1e6/mL+/−2 μM of GRZ for 48 hours to induce payload. On Day 2, target cells were counted and 35K were seeded per well in a 96 well plate for 4-6 hrs in target cell media. Then target cell media was removed and T cells were counted and 35K CAR normalized T cells were seeded [E:T— 1:1] in 200 µl of Optimizer media overnight. On Day 3, cells were transferred to a V-bottom plate, spun down, and supernatant harvested to determine killing activity using an LDH assay (CyQUANT LDH Cytotoxicity Assay; Life Technologies)."}, "[4]": {"test_system": "T cells engineered with drug-inducible ACP (inducible IL-12)", "assay_type": "in vivo", "settings": "for Human T cells in the blood (hCD3+: hCD45+): inducible IL-12 T cells, individual mice", "procedure": "Negative controls were untransduced T cells. […] All Grz dosing was administered IP.\nA first series of Grazoprevir (Grz) dosing regimens were assessed, as described in Table 25."}, "[5]": {"test_system": "T cells engineered with drug-inducible ACP (NS3/NS4 protease cleavage site)", "assay": "In vivo regulated armoring: plasma hIL-12 (Luminex) and circulating human T cells (flow cytometry)", "parameters": "species or system NSG mice", "settings": "25 mg/kg Grz IP, BID; T cells with SB01845 & SB02357", "procedure": "Negative controls were untransduced T cells. […] Dosing: Drug treated mice received 25 mg/kg Grz at each dosing time point; vehicle treated mice received equivalent volume of vehicle; all Grz dosing administered IP. Dosing continued BID on days 2-4. […] Mice were bled on day 4 and sacrificed/bled on day 5."}},
  "note": "Several values for one entry are separate records, joined by “and”; a condition that tells them apart may be missing. Equal entries are not always repeated. Where two headings read alike, the source gives them in different places.",
  "data": [
    {"smiles": "CC/C(=C(\\c1ccccc1)c1ccc(OCCNC)cc1)c1ccccc1", "note": "[N-desmethyltamoxifen]", "values": [
      {"measurement": "reporter (mCherry) expression", "setting": "[1]", "value": "did not result expression of the reporter"}
    ]},
    {"smiles": "C=C[C@@H]1C[C@]1(NC(=O)[C@@H]1C[C@@H]2CN1C(=O)[C@H](C(C)(C)C)NC(=O)O[C@@H]1C[C@H]1CCCCCc1nc3ccc(OC)cc3nc1O2)C(=O)NS(=O)(=O)C1CC1.O", "note": "[grazoprevir]", "values": [
      {"measurement": "mice that lost ~15% weight during the first week of dosing", "setting": "[2]; 60 mg/kg IP, these mice received only 30 mg/kg on day 3", "value": "3 of 10"},
      {"measurement": "plasma IL-12", "setting": "[2]; Day 4, first on week", "value": "significant Grazoprevir dose dependent induction of IL-12"},
      {"measurement": "injected human T cells in blood when Grz was administered", "setting": "[2]; Day 4, 60 mg/kg IP once a day for 3 days", "value": "significantly less"},
      {"measurement": "plasma IL-12 levels between drug and no-drug groups", "setting": "[2]; Day 11, off week", "value": "equivalent"},
      {"measurement": "plasma IL-12", "setting": "[2]; Day 18, second on week", "value": "further significant Grazoprevir dose dependent induction of IL-12"},
      {"measurement": "injected human T cells in blood, inducible system groups with vs without Grz", "setting": "[2]; Days 11, 18, and 25", "value": "no difference"},
      {"measurement": "organ findings at end time point", "setting": "[2]; necropsy", "value": "pale kidneys, thick diaphragm, enlarged spleen, thick liver lobe, white/yellow lump growing inside the liver, and organs (liver, stomach, spleen) sticking with peritoneal wall and each other"},
      {"measurement": "body weight", "setting": "[2]; time course", "value": "transient weight loss"},
      {"measurement": "difference in killing in the presence or absence of grazoprevir", "setting": "[3]", "value": "No noticeable differences in killing"},
      {"measurement": "Human T cells in the blood (hCD3+: hCD45+)", "setting": "[4]; Day 4, 25 mg/kg BID Grz IP, 25 mg/kg", "value": "5.42 % of live cells and 0.08 % of live cells and 4.07 % of live cells and 3.61 % of live cells and 3.88 % of live cells and 5.91 % of live cells and 4.2 % of live cells and 3.14 % of live cells"},
      {"measurement": "Human T cells in the blood (hCD3+: hCD45+)", "setting": "[4]; Day 4, 50 mg/kg Grz IP, 50 mg/kg", "value": "4.09 % of live cells and 2.96 % of live cells and 3.7 % of live cells and 1.62 % of live cells and 4.16 % of live cells and 2.57 % of live cells and 4.55 % of live cells and 2.58 % of live cells"},
      {"measurement": "Human T cells in the blood (hCD3+: hCD45+)", "setting": "[4]; Day 4, 75 mg/kg Grz IP, 75 mg/kg", "value": "2.95 % of live cells and 3.14 % of live cells and 2.6 % of live cells and 0* % of live cells (2×) and 2.41 % of live cells and 1.43 % of live cells and 2.87 % of live cells"},
      {"measurement": "Human T cells in the blood (hCD3+: hCD45+)", "setting": "[4]; Day 4, 25 + 50 mg/kg Grz IP, 50 mg/kg", "value": "2.18 % of live cells and 6.98 % of live cells and 6.53 % of live cells and 13 % of live cells and 2.24 % of live cells and 4.72 % of live cells and 5.64 % of live cells and 7.89 % of live cells"},
      {"measurement": "serum IL-12 levels", "setting": "[4]; Day 8", "value": "returned to baseline"},
      {"measurement": "Human T cells in the blood (hCD3+: hCD45+)", "setting": "[4]; Day 8, 25 mg/kg BID Grz IP, 25 mg/kg", "value": "6.78 % of live cells and 0.077 % of live cells and 3.63 % of live cells and 2.46 % of live cells and 2.07 % of live cells and 3.45 % of live cells and 2.27 % of live cells and 4.09 % of live cells"},
      {"measurement": "Human T cells in the blood (hCD3+: hCD45+)", "setting": "[4]; Day 8, 50 mg/kg Grz IP, 50 mg/kg", "value": "7.36 % of live cells and 10.9 % of live cells and 7.31 % of live cells and 8.1 % of live cells and 9.23 % of live cells and 5.88 % of live cells and 6.63 % of live cells and 7.34 % of live cells"},
      {"measurement": "Human T cells in the blood (hCD3+: hCD45+)", "setting": "[4]; Day 8, 75 mg/kg Grz IP, 75 mg/kg", "value": "8.19 % of live cells and 9.67 % of live cells and 6.55 % of live cells and 0.028 % of live cells and 11.6 % of live cells and 4.7e−003 % of live cells and 11 % of live cells and 3.79 % of live cells"},
      {"measurement": "Human T cells in the blood (hCD3+: hCD45+)", "setting": "[4]; Day 8, 25 + 50 mg/kg Grz IP, 50 mg/kg", "value": "7.09 % of live cells and 7.85 % of live cells and 9 % of live cells and 12 % of live cells and 6.34 % of live cells and 7.02 % of live cells and 8.65 % of live cells and 5.04 % of live cells"},
      {"measurement": "mice found dead", "setting": "[4]; Day 12", "value": "2 of 8"},
      {"measurement": "serum IL-12 levels", "setting": "[4]; Day 12", "value": "remained stable"},
      {"measurement": "Human T cells in the blood (hCD3+: hCD45+)", "setting": "[4]; Day 12, 25 mg/kg BID Grz IP, 25 mg/kg", "value": "13.5 % of live cells and 0.21 % of live cells and 13.3 % of live cells and 9.36 % of live cells and 9.33 % of live cells and 14 % of live cells and 16.1 % of live cells and 13.8 % of live cells"},
      {"measurement": "Human T cells in the blood (hCD3+: hCD45+)", "setting": "[4]; Day 12, 25 + 50 mg/kg Grz IP, 50 mg/kg", "value": "10.9 % of live cells and 12.2 % of live cells and 11.1 % of live cells and 16.3 % of live cells and 2.61 % of live cells and 9.13 % of live cells"},
      {"measurement": "hIL-12 in the plasma of mice above vehicle", "setting": "[5]", "value": "~100", "unit": "fold"}
    ]}
  ]
}
